# Columns and labels:
# [1] = system: guinea-pig gall bladder contracted with CCK-8; assay: Anticholecystokinin (anti-CCK) activity on guinea-pig gall bladders stimulated by CCK-8 in vitro; settings: CCK-8 concentration 10 ng/ml, Krebs, 32° C.
# Protocol: Anticholecystokinin (anti-cc, K) activity
# In order to confirm the hypothesis that the molecular conformations of the compounds of the invention are suitable to provide them with antagonistic activity towards CCK as well as towards gastrin, the anticontracturant activities of some of the compounds of the invention were tested on guinea-pig gall bladders stimulated by CCK-8 in vitro.
# A longitudinal strip of guinea-pig gall bladder was placed in a bath for isolated organs in the presence of Krebs at a temperature of 32° C. and oxygenated continuously with an oxygen-CO2 mixture (95-5 V/V).
# The isometric contractions were detected by means of a force transducer and recorded.
# The gall bladder was contracted with the use of a concentration of 10 ng/ml of CCK-8; the antagonistic activities of the compounds towards the contracturant effect of the CCK was determined with the use of different concentrations, thus determining the IC50 values, that is, the concentration of the compound in mcg/ml which can antagonise the contracturant effect of CCK by 50%.
# [2] = system: gastric acid secretion induced by pentagastrin; assay: Antisecretive activity in anaesthetised rats (pentagastrin-stimulated gastric acid secretion); assay type: in vivo
# Protocol: Antisecretive activity in anaesthetised rats
# Antisecretive activity in rats was determined with the use of male animals each weighing about 200 g, anaesthetised with urethane. Gastric secretion was stimulated with pentagastrin. The method of K. S. Lai (Gut 5, (1964), 327-341) was used, slightly modified.
# After tracheotomy, cannulae were inserted in the oesophagus and the duodenum. A tepid solution. (37° C.) of 0.25 mM NaOH was perfused and passed through the stomach by means of a peristaltic pump at a constant flow rate of 1 ml/minute. After stabilisation for 20 minutes, the stimulating agent, dissolved in a physiological solution, was perfused for 120 minutes at a dose of 30 mcg/Kg/h in a volume of 0.95 ml/hour. After perfusion for 60 minutes (the basal stimulation), the product under test was administered as an intravenous bolus (I.V.) and the perfusion of the stimulant continued for a further 60 minutes. Acid secretion was recorded continuously as a function of time.
# The activity of the product was evaluated as the percentage reduction in the secreted acidity after the administration of the product compared with the base acidity measured during the first 60 minutes of collection during which only the pentagastrin was present.
# Different doses of the antagonist compounds tested were administered so that an ID50, that is, the dose (in mg/Kg I.V.) capable of inhibiting the effect of pentagastrin by 50%, could be calculated.
# The results thus obtained are illustrated in the following table (Table 1) in which the activities of the compounds are expressed as the ID50s under the stimulus of 30 mcg/Kg/h of pentagastrin.
# fundic mucosa = assay: Fundic mucosa hyperplasia induced by pentagastrin in mice; assay type: in vivo; settings: 21 days
# Description: (§1) Inhibitory effect on the rate of growth of tumorous colic cells induced by pentagastrin
# (§2) Gastrin has a trophic effect on the digestive epithelium.
# (§3) Upon the basis of this premise, it was wished to investigate whether the gastrin-specific antagonists of the invention could antagonise the growth of experimentally-induced gastrointestinal tumours.
# (§4) Male mice weighing 20-25 g were inoculated subcutaneously in the interscapular region with a suspension of 8×10^4 tumour cells of a mouse colic adenocarcinoma.
# (§5) After 21 days, the animals were killed and the fundic mucosa and the tumours were removed, weighed and extracted to determine the DNA.
# [3] = system: gastric acid secretion induced by pentagastrin; assay: Antisecretive activity in conscious dogs carrying gastric fistulae; assay type: in vivo, dogs (beagles); settings: for ED50: Canis lupus familiaris, iv, read-out: ID50 (the source's name)
# Protocol: Antisecretive activity in conscious dogs
# Male beagles weighing about 10 Kg were used and carried gastric fistulae at the level of the greater curvature, connected near the antral region, steel cannulae 5 cm long and 2 cm wide being inserted for collecting the gastric juices externally. After a period of about one month to recover from the operation, and after suitable conditioning, the animals were treated with pentagastrin at a dose of 3 mcg/Kg/h. The Stimulant, dissolved in a physiological solution, was perfused into the femoral vein for 180 minutes at a rate of 1.9 ml/h. After perfusion for 60 minutes (the basal stimulation) the product under test, dissolved in a physiological solution (1 ml/Kg), was administered in a bolus into the contra-lateral vein and, at the same time, the perfusion of the stimulant continued for a further 120 minutes. The acid secretion was recorded continuously as a function of time.
# The activity of the product was evaluated as the percentage reduction in the secreted acidity after the administration of the product compared with the base acidity measured during the first 60 minutes of collection during which only the pentagastrin was present, for each of the periods 0-60 and 60-120 minutes after the product had been administered in a bolus.
# Different doses of the compounds (C-1 and C-5) tested were administered so that an ID50, that is the dose (in mg/Kg I.V.) capable of inhibiting the effect of the pentagastrin by 50% could be calculated.
# The results obtained are given in the following table (Tab. 2) in which the % variations from the base (the mean ± standard deviations calculated on the values obtained from 4 animals) are given for the various doses administered under the stimulus of 3 mcg/Kg/h of pentagastrin, as well as the activities of the compounds, calculated as their ID50s, and the correlation coefficients of the regression lines calculated on the basis of the experimental data.
# [4] = Acute intravenous toxicity in rats (LD50); settings: rat, in vivo
# Description: The activity of these compounds against gastric secretion is linked specifically to their antigastrin activity.
# [5] = system: mouse colic adenocarcinoma; assay: Colic tumorous growth induced by pentagastrin in mice; assay type: in vivo; settings: 21 days
# Description: as §1, §2, §3, §4, §5
# [6] = pentagastrin + C-5 3 mg/Kg i.p. twice a day
# [7] = pentagastrin + C-5 10 mg/Kg i.p. twice a day
compound,measurement,setting,value
O=C(O)CC[C@@H](NC(=O)c1cc(Cl)cc(Cl)c1)C(=O)N1CCC2(CCCC2)CC1 [Compound C5],Anti-CCK activity IC50,[1],34.8 µg/mL
same,ED50,"[2]; Rattus norvegicus, iv, anaesthetised male rats, pentagastrin 30 mcg/Kg/h, I.V. bolus, IN with bound, read-out: Antagonistic activity (ID50) towards gastric acid secretion induced by pentagastrin",15 mg/kg
same,Antigastrin activity (in words),"[2]; anaesthetised rats, pentagastrin 30 mcg/Kg/h",particularly favourable
same,Activity as peripheral pentagastrin inhibitor relative to compound C-30,"[2]; rats, vs C-30",slightly more active
same,Effect on the fundic mucosa (in words),fundic mucosa; mice,can inhibit both the aforementioned trophic effects of pentagastrin in a significant and dose-dependent manner
same,"Fundic DNA, Mean ± SD",fundic mucosa; [6],0.268 ± 0.03 mg
same,"Weight of the mucosa fundica, Mean ± SD",fundic mucosa; [6],23.85 ± 3.48 mg
same,"Fundic DNA, Mean ± SD",fundic mucosa; [7],0.252 ± 0.03 mg
same,"Weight of the mucosa fundica, Mean ± SD",fundic mucosa; [7],18.90 ± 2.54 mg
same,Variation % (Mean ± SD) from base (0-60 min),"[3]; 5 mg/Kg I.V., period 60-120 min",-36.0 ± 16.3%
same,Variation % (Mean ± SD) from base (0-60 min),"[3]; 5 mg/Kg I.V., period 120-180 min",-20.5 ± 13.1%
same,Variation % (Mean ± SD) from base (0-60 min),"[3]; 10 mg/Kg I.V., period 60-120 min",-59.5 ± 5.0%
same,Variation % (Mean ± SD) from base (0-60 min),"[3]; 10 mg/Kg I.V., period 120-180 min",-31.9 ± 1.3%
same,Variation % (Mean ± SD) from base (0-60 min),"[3]; 30 mg/Kg I.V., period 60-120 min",-67.8 ± 4.8%
same,Variation % (Mean ± SD) from base (0-60 min),"[3]; 30 mg/Kg I.V., period 120-180 min",-48.1 ± 1.7%
same,ED50,"[3]; 1 h, conscious dogs, I.V. bolus, period 60-120 min (first hour after administration)",8.9 mg/kg
same,ED50,"[3]; 2 h, conscious dogs, I.V. bolus, period 120-180 min (second hour after administration)",32.5 mg/kg
same,ID50,"[3]; conscious dogs, I.V. bolus, period 60-120 min (first hour after administration), 60 min",~10 mg/kg
same,Inhibition of gastric acid secretion induced by pentagastrin in dogs (in words),"[3]; conscious dogs, first hour after bolus",potent inhibitors of gastric acid secretion induced by pentagastrin in dogs
same,LD50,[4],~400 mg/kg
same,selectivity ratio,[4],~25
same,Effect on colic tumour weight and DNA content (in words),[5]; mice,can inhibit both the aforementioned trophic effects of pentagastrin in a significant and dose-dependent manner
same,"Tumorous DNA, Mean",[5]; [6],3.24 ± 0.42 mg
same,"Weight of the colic tumor, Mean ± SD",[5]; [6],601.5 ± 91.7 mg
same,"Tumorous DNA, Mean",[5]; [7],2.94 ± 0.31 mg
same,"Weight of the colic tumor, Mean ± SD",[5]; [7],554 ± 61.7 mg
